The results in this text go back to patent EP2924039A1, “2-Amino-1-phenyl-pyrrolo[3,2-b]quinoxaline-3-carboxamide derivates” (Universität Zürich, priority 2014, dated 2015).

pIC50: −log10 of the molar value.

The subject of assay [1] is K-562 leukemia cells. Kind of assay: Cell culture and GI50 determination (resazurin), K-562. It is filed as cell-based. The conditions noted are these: Homo sapiens, K562, K-562, 48 hour incubation. The procedure:
(§1) Krek (Institute of Cell Biology, ETH Zurich) were cultured in Dulbelcco's modified Eagle's medium (DMEM) supplemented with 10% (v/v) fetal bovine serum. K562 leukemia cells obtained from Dr. Silvio Hemmi (Institute of Molecular Life Sciences, UZH) were cultured using RPMI medium supplemented with 5% (v/v) fetal bovine serum. All the media was additionally supplemented with 100 units/mL of penicillin, 100µg/mL of streptomycin, 4.5 g/L glucose, 0.11g/L sodium pyrubate and 2mM glutamine and the cells were grown at 37°C in 5% CO2 atmosphere with 80% relative humidity.
After 24 hours, 12.5 µL of a 10 fold concentrated drug or DMSO solution in RMPI media was added in every well. After 48 hour incubation, cell viability was studied by measuring the ability of the cells to process resazurin.
For orientation: Resazurin is reduced to fluorescent resorufin, in cell work by metabolically active cells.

In assay [2] the test system is HT-29. Kind of assay: Cell culture and GI50 determination (resazurin), HT-29. Type of assay: cell-based. The conditions noted are these: Homo sapiens; HT-29, resazurin. Here is the method:
(§2) The old media was removed, the cells were washed with PBS (phosphate-buffered saline) and fresh media was added. […] Control cells were treated with the same DMSO concentrations. […] After 3 hours, the fluorescence was quantified using a fluorescence microplate reader (Biotek, FLx800™) at the respective excitation and emission wavelength of 560 and 590 nm. Resazurin becomes fluorescent under mitochondrial reduction and its emission directly correlates with the metabolic stability of the cells. […] All measurements were performed at least in triplicate (see table 1).

In assay [3] the test system is A498 (kidney cancer) cells. Kind of assay: Cell culture and GI50 determination (resazurin), A-498. Type of assay: cell-based. The conditions noted are these: Homo sapiens, A-498, 48h incubation. Here is the method:
as §1, §2

Assay [4] concerns panel of 456 protein kinases. Kind of assay: Selectivity profiling at DiscoveRx (KinomeScan). Particulars: 1 µM compound; for one or more of the protein kinases listed. Type of assay: binding. The procedure:
The selectivity profiling of compounds 10c, 10d, 10n and 10o were performed at DiscoveRx in a library of 456 kinases at a concentration of 1 µM. Briefly, kinases were mostly expressed as fusion proteins to […] and grown in 24-well blocks in E. Coli (derived from the BL21 strain). The rest of the kinases were expressed in HEK-293 cells and tagged with DNA for qPCR detection. Affinity resins were generated by mixing streptavidin-coated magnetic beads with biotinylated small molecule ligands for 30 minutes at 25 °C, followed by biotin and blocking buffer addition (SeaBlock (Pierce), 1 % BSA, 0.05 % Tween 20, 1 mM DTT). Inhibitors were kept at 40x stocks in 100% DMSO and added to the corresponding 384-well plates (40 µL). […] The kinase concentration present in the eluate was determined by qPCR. For further details, see Fabian, et. al., Nat. Biotechnol., 2005, 23 (3), 329-33.

The target in assay [5] is T1, EphA3 (Homo sapiens, UniProt P29320).
T1 construct: A clone of EphA3 kinase domain (residues: 606-947); made in house; host or cells: Escherichia coli BL21 (DE3)
T1 sequence (P29320 606-947): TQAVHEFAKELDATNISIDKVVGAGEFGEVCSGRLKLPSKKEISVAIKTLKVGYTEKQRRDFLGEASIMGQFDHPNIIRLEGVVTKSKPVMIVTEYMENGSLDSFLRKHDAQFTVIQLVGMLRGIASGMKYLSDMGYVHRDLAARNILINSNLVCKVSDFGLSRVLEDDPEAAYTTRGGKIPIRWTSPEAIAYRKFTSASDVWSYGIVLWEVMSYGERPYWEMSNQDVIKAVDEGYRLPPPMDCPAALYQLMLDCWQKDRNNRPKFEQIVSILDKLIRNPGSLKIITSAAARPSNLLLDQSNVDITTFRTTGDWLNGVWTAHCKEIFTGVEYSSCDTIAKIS
Kind of assay: Differential Scanning Fluorimetry. It is filed as binding. The conditions noted are these: 2 µM EphA3, compound 20µM; read-out: Delta Tm. Here is the method:
Cell pellets were resuspended in buffer A (50mM Tris, pH 8.0 and 100mM NaCl, supplemented with protease inhibitors) and lysed by sonication. After centrifugation at 15,000 rpm for 1 h, the soluble fraction of EphA3 was purified using […] (GE healthcare), followed by gel filtration chromatography (Superdex75; GE healthcare). The appropriate fractions were combined and concentrated to ~10 mg/mL using Amicon filter devices (10kDa as cutoff) in a storage solution (100mM sodium chloride and 10mM Tris-HCl pH 8.0, 5% glycerol). The resulting solution was aliquoted and stored at -80°C for further usage.
A final volume of 40µL was added per well in a 96 well plate and incubated at room temperature for 1 h. The plates were centrifuged for 3 min at 450 rcf. The temperature gradient was performed in the range of 25°C-75°C (50 acquisitions per degree at a ramp rate of 4.4°C/s) using a LightCycler 480 Real-Time PCR System. […] All measurements were performed in triplicate.

Assay [6] concerns KM12 (colon cancer) cells. Kind of assay: Cell culture and GI50 determination (resazurin), KM12. Type of assay: cell-based. Particulars: Homo sapiens. The procedure: as §1, §2
For assay [7], the system named is MDA-MB-231 (breast cancer) cells. Kind of assay: Cell culture and GI50 determination (resazurin), MDA-MB-231. It is filed as cell-based. The conditions noted are these: Homo sapiens, MDA-MB-231, 72 h. Here is the method:
as §1, §2

Assay [8] has as its target T2, full-length human EphB4 (Homo sapiens, UniProt P54760).
T2 construct: stably transfected to overexpress full-length human EphB4; host or cells: Mouse embryonic fibroblast cells
T2 sequence (P54760 16-987): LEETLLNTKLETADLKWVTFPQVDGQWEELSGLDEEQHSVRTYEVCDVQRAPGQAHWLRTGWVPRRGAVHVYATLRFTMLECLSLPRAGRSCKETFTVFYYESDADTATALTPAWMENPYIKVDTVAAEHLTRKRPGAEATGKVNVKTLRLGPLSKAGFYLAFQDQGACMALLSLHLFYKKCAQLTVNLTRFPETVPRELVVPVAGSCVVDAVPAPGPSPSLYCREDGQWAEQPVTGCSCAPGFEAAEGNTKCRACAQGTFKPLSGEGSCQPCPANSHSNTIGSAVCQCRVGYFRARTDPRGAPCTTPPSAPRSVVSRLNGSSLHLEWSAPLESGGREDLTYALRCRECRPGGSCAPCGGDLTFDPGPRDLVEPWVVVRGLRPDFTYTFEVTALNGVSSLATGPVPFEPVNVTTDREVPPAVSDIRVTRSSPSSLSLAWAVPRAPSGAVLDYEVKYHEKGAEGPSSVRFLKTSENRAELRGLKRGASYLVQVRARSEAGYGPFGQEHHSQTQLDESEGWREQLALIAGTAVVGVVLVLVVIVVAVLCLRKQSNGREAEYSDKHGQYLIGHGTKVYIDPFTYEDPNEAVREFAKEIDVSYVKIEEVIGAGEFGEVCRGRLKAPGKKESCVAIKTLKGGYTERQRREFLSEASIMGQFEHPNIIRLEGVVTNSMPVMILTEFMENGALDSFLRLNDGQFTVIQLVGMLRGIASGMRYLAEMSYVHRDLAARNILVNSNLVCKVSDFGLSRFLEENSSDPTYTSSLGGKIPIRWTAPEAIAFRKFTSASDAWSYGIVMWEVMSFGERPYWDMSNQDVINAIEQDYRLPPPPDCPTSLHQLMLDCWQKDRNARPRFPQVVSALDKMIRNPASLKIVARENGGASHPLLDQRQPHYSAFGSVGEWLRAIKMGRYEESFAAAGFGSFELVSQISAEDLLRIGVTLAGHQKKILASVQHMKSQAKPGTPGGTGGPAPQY
Kind of assay: Cellular phosphorylation assay (sandwich ELISA, ProQinase). Type of assay: cell-based. The conditions noted are these: mouse embryonic fibroblast cells overexpressing EphB4, stimulated with murine ephrinB2-Fc, read-out: cell IC50. The procedure: Cellular phosphorylation assays: The cellular phosphorylation experiments were performed at ProQinase GmbH. Mouse embryonic fibroblast cells, stably transfected to overexpress full-length human EphB4, were plated at 4×10^4 cells/well in DMEM supplemented with 10% FCS in 48-well culture dishes. Medium was replaced by DMEM without FCS before test compounds prediluted in 100% DMSO were added (final DMSO concentration of 1 %). After incubation for 90 min at 37 °C, cells were stimulated for 2 h at 4 °C using murine ephrinB2-Fc at a final concentration of 2 µg/ml. Quantification of EphB4 phosphorylation was assessed in a 96-well plate via sandwich ELISA using a myc capture antibody and an antiphosphotyrosine detection antibody. Table 4: Cell IC50 (µmol/l) in cells overexpressing EphB4
In general terms: An ELISA detects its analyte on a solid surface through an enzyme-linked reagent.

The test system of assay [9] is HOP-92 (lung cancer) cells. Kind of assay: Cell culture and GI50 determination (resazurin), HOP-92. Type of assay: cell-based. Particulars: Homo sapiens; HOP-92, resazurin. Here is the method:
as §1, §2

The GI50 is the concentration giving 50% growth inhibition. The term pIC50 denotes −log10 of the IC50, conventionally taken in molar units. `CC(C)(C)c1cc(NC(=O)Nc2ccc(-n3c(N)c(C(N)=O)c4nc5ccccc5nc43)cc2)n(-c2ccc3ncccc3c2)n1` [Compound 10n, 2-amino-1-(4-(3-(5-tert-butyl-2-quinolin-6-yl-2H-pyrazol)ureido)phenyl)-1H-pyrrolo[2,3-b]quinoxaline-3-carboxamide]: the 50% growth inhibitory concentration (GI50) was 3 nM in assay [1]; 1250 nM in [2]; 730 nM in assay [3]; 150 nM in [6]; 210 nM in [7]; 450 nM in assay [9]. Also, the “control binding to the kinase in presence of the compound relative to control binding in absence of the compound” value in [4] was “less than 10% of control”. Moreover, the ΔTm at 20 µM in assay [5] was 19.3 °C. Besides, the pIC50 in [8] was 5.96.
For `Cc1ccc(-n2nc(C(C)(C)C)cc2NC(=O)Nc2ccc(-n3c(N)c(C(N)=O)c4nc5ccccc5nc43)cc2)cc1` [Compound 10o], the concentration for 50% growth inhibition (GI50) is 20 nM in [1]; 780 nM in assay [2]; 1000 nM in [3]; 210 nM in assay [6]; 980 nM in assay [7]; 1480 nM in assay [9]. The “control binding to the kinase in presence of the compound relative to control binding in absence of the compound” value in assay [4] is given as “less than 10% of control”. The ΔTm at 20 µM in assay [5] is 17.3 °C. In assay [8], the pIC50 was 6.43.
